Measured values reported in patent US9212130B2, “Heterocyclic derivative and pharmaceutical composition comprising the same” (SHIONOGI & CO., LTD., priority 2010, dated 2015).

Tested on: not listed separately
Assay: Solubility test
Format: physicochemical
Details: 25 °C, other biorelevant, kinetic from dmso stock; 1% DMSO; artificial intestinal juice in pH 8.8; 25 degrees Celsius for 16 hours
Experimental: The solubility of a compound was determined under a condition in which 1% DMSO was added. 10 mmol/L compound solution was prepared using DMSO, and then 6 μL of the compound solution was added to 594 μL of artificial intestinal juice in […] (to 250 mL of 0.2 mol/L potassium dihydrogen phosphate reagent solution was added 118 mL of 0.2 mol/L NaOH reagent solution and water to provide a final volume of 1000 mL). After standing at 25 degrees Celsius for 16 hours, the mixed solution was filtrated with suction. The filtrate was diluted twice with methanol/water (1/1) and then a concentration in the filtration was measured with HPLC or LC/MS/MS by the absolute calibration method.

SMILES	solubility at 16 h
CC(C)Oc1ccc(Nc2cc(=O)n(CC(=O)NCCO)c(=O)n2Cc2ccc(Cl)cc2)cc1F [I-112, 1-(4-chlorobenzyl)-6-(3-fluoro-4-isopropoxyphenylamino)-3-(2-hydroxyethylcarbamoylmethyl)pyrimidine-2,4(1H,3H)-dion]	> 50 µM

Same assay, conditions: artificial intestinal juice (phosphate buffer) with 1% DMSO, 25 °C, other biorelevant, kinetic from dmso stock, artificial intestinal juice in pH 8.8, 25 degrees Celsius for 16 hours

SMILES	solubility at 16 h
CC(C)Oc1ccc(Nc2nc(=O)c(CCC(=O)O)cn2Cc2ccc(Cl)cc2)cc1Cl [I-117]	> 50 µM
CC(=O)N1CCC(C(=O)Nc2cnc(Nc3ccc4nc(C)sc4c3)n(Cc3ccc(Cl)cc3)c2=O)CC1 [I-356]	> 50 µM
Cc1nc2ccc(Nc3nc(=O)c(C(=O)NCCCO)cn3Cc3ccc(Cl)cc3)cc2s1 [I-299]	> 50 µM

Biological target: human P2X3 receptor (Homo sapiens (Human), UniProt P56373)
Sequence (P56373 whole entry): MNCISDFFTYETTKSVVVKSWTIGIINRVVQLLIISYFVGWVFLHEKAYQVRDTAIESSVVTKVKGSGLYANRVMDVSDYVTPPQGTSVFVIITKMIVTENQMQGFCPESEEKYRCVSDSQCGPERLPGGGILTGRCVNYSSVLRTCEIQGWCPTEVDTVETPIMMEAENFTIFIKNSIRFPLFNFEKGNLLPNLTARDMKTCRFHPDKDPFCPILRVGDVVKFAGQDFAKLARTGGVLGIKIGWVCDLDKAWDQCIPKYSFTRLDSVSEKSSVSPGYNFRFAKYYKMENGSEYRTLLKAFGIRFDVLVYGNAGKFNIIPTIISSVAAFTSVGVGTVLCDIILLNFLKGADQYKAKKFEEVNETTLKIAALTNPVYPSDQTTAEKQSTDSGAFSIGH
Assay: Evaluation of human P2X3 receptor inhibitory activity (ATP-induced Fluo-3 fluorescence, FDSS 3000)
Format: cell-based
Details: C6BU-1 cell transfected with human P2X3 receptor gene
Experimental: The plate was placed in High-Throughput Screening System FDSS 3000 (Hamamatsu Photonics K.K.). […] Five minutes after, 50 nM ATP solution (50 μL) prepared by dilution with the dilution buffer was dispensed through the built-in automatic dispenser, and the measurement of fluorescence intensity was continued for 3 min. For each well, the specific maximum fluorescence intensity was calculated as the ratio of the maximum fluorescence intensity after addition of the ATP solution to the fluorescence intensity at the starting of the measurement. […] FDSS software (Hamamatsu Photonics K.K.) was used for calculation of the specific maximum fluorescence intensity. IC50 was calculated using Microsoft Excel (Microsoft. Corporation) and XLfit (idbs Ltd.)
The aforementioned in mM, μM and nM are each means mmol/L, μmol/L and nmol/L, respectively.
In tables, μM means μmol/L.

SMILES	IC50
CC(=O)N1CCC(C(=O)Nc2cnc(Nc3ccc4nc(C)sc4c3)n(Cc3ccc(Cl)cc3)c2=O)CC1 [I-356]	18 nM
CC(C)Oc1ccc(Nc2ncc(NC(=O)NC3CCOCC3)c(=O)n2Cc2ccc(Cl)cc2)cc1F [I-289]	7 nM
CC(C)Oc1ccc(Nc2cc(=O)n(CC(=O)NCCO)c(=O)n2Cc2ccc(Cl)cc2)cc1F [I-112, 1-(4-chlorobenzyl)-6-(3-fluoro-4-isopropoxyphenylamino)-3-(2-hydroxyethylcarbamoylmethyl)pyrimidine-2,4(1H,3H)-dion]	14 nM
CC(C)Oc1ccc(Nc2ncc(N)c(=O)n2Cc2ccc(Cl)cc2)cc1F [I-243]	676 nM
CC(C)Oc1ccc(Nc2ncc(C#N)c(=O)n2Cc2ccc(Cl)cc2)cc1F [I-259]	436 nM
COCC(=O)Nc1cnc(Nc2ccc(OC(C)C)c(F)c2)n(Cc2ccc(Cl)cc2)c1=O [I-249]	35 nM
Cc1nc(Nc2ccc(OC(C)C)cc2)n(Cc2ccc(Cl)cc2)c(=O)c1Cc1ccccc1 [I-330]	350 nM
CNc1cnc(Nc2ccc(OC(C)C)c(F)c2)n(Cc2ccc(Cl)cc2)c1=O [I-222]	560 nM
COC(=O)C(C)(C)Cn1c(=O)cc(Nc2ccc(OC(C)C)c(Cl)c2)n(Cc2ccc(Cl)cc2)c1=O [I-010]	10 nM
CC(C)(Cn1c(=O)cc(Nc2cccc(C(F)(F)F)n2)n(Cc2ccc(Cl)cc2)c1=O)C(=O)O [I-114, 1-(4-chlorobenzyl)-3-(2-hydroxycarbonyl-2-methylpropyl)-6-(6-trifluoromethyl-2-pyridylamino)pyrimidine-2,4(1H,3H)-dion]	160 nM
CC(C)Oc1ccc(Nc2ncc(NC(=O)c3ccc(=O)[nH]c3)c(=O)n2Cc2ccc(Cl)cc2)cc1F [I-276]	32 nM
Cc1nc2ccc(Nc3cc(=O)n(CCO)c(=O)n3Cc3ccc(Cl)cc3)cc2s1 [I-355]	57 nM
CC(C)Oc1ccc(Nc2cc(=O)n(CC(C)(C)C(=O)O)c(=O)n2Cc2ccc(Cl)cc2)cc1Cl [I-012]	6 nM
CC(C)Oc1ccc(Nc2ncc(NC(=O)C3CCOCC3)c(=O)n2Cc2ccc(Cl)cc2)cc1 [I-235]	11 nM
Cc1nc2ccc(Nc3nc(=O)c(C(=O)NCCCO)cn3Cc3ccc(Cl)cc3)cc2s1 [I-299]	111 nM
CC(C)Oc1ccc(Nc2ncc(N(S(C)(=O)=O)S(C)(=O)=O)c(=O)n2Cc2ccc(Cl)cc2)cc1F [I-253]	536 nM
Cc1nc2ccc(Nc3nc(=O)c(C(=O)NC(C)C)cn3Cc3ccc(Cl)cc3)cc2s1 [I-307]	40 nM
CCOC(=O)/C=C/c1cn(Cc2ccc(Cl)cc2)c(Nc2ccc(OC(C)C)c(Cl)c2)nc1=O [I-098]	233 nM
Cc1ccc(Oc2ccc(Nc3ncc(NC(=O)C(CO)CO)c(=O)n3Cc3ccc(Cl)cc3)cc2)cn1 [I-296]	7 nM
CC(C)Oc1ccc(Nc2ncc(NC(=O)CC3CCOCC3)c(=O)n2Cc2ccc(Cl)cc2)cc1F [I-233]	49 nM
CCc1nc2ccc(Nc3ncc(NC(=O)C4CCOCC4)c(=O)n3Cc3ccc(Cl)cc3)cc2s1 [I-262]	3 nM
Cc1nc2ccc(Nc3nc(C)c(C(N)=O)c(=O)n3Cc3ccc(Cl)cc3)cc2s1 [I-347]	182 nM

SMILES	IC50
CC(C)Oc1ccc(Nc2cc(=O)n(CC(CO)CO)c(=O)n2Cc2ccc(Cl)cc2)cc1Cl [I-099]	6 nM
Cc1ccc(Oc2ccc(Nc3ncc(NC(=O)C4CCOCC4)c(=O)n3Cc3ccc(Cl)cc3)cc2)cn1 [I-265]	1 nM
Cc1nc2ccc(Nc3ncc(NC(=O)OCc4ccccc4)c(=O)n3Cc3ccc(Cl)cc3)cc2s1 [I-319]	105 nM
CC(C)Oc1ccc(Nc2ncc(N3CCOCC3)c(=O)n2Cc2ccc(Cl)cc2)cc1F [I-138, 2-(3-fluoro-4-isopropoxyphenylamino)-3-(4-chlorobenzyl)-5-(morpholino)pyrimidine-4(3H)-one]	201 nM
COC(=O)[C@@H](C)Cn1c(=O)cc(Nc2ccc(OC(C)C)c(Cl)c2)n(Cc2ccc(Cl)cc2)c1=O [I-095]	16 nM
Cc1nc2ccc(Nc3ncc(NC(=O)C(CO)CO)c(=O)n3Cc3ccc(Cl)cc3)cc2s1 [I-361]	10 nM
CC(C)Oc1ccc(Nc2nc(=O)c(/C=C/C(=O)O)cn2Cc2ccc(Cl)cc2)cc1Cl [I-097]	307 nM
COC(=O)[C@@H](C)Cn1c(=O)cc(Nc2ccc(OC(C)C)cn2)n(Cc2ccc(Cl)cc2)c1=O [I-213]	427 nM
Cc1nc2ccc(Nc3ncc(NC(=O)C(C)(C)O)c(=O)n3Cc3ccc(Cl)cc3)cc2s1 [I-360]	3 nM
COC(=O)[C@@H](C)Cn1c(=O)cc(Nc2ccc(OC(C)C)cc2)n(Cc2ccc(Cl)cc2)c1=O [I-216]	105 nM
CC(C)Oc1ccc(Nc2oc(Cc3ccccc3)nc2Cc2ccc(Cl)cc2)cc1F [I-070, 4-(4-chlorobenzyl)-2-benzyl-5-(3-fluoro-4-isopropoxyphenylamino)oxazole]	635 nM
CC(=O)OC(C)(C)C(=O)Nc1cnc(Nc2ccc(OC(C)C)c(F)c2)n(Cc2ccc(Cl)cc2)c1=O [I-267]	25 nM
COCCCNC(=O)c1cn(Cc2ccc(Cl)cc2)c(Nc2ccc3nc(C)sc3c2)nc1=O [I-300]	164 nM
CC(C)(CN1C(=O)N(Cc2ccc(Cl)cc2)C(Nc2cccc(C(F)(F)F)c2)=CC1O)C(=O)O (centres unmarked) [I-113]	72 nM
CNc1ncc(Nc2cccc(C(F)(F)F)c2)c(Cc2ccc(Cl)cc2)n1 [I-190]	990 nM
CC(C)Oc1ccc(Nc2nc(=O)c(NC(=O)OC(C)(C)C)cn2Cc2ccc(Cl)cc2)cc1F [I-230]	92 nM
COC(=O)Cn1c(=O)cc(Nc2ccc(OC(C)C)c(F)c2)n(Cc2ccc(Cl)cc2)c1=O [I-104, 1-(4-chlorobenzyl)-6-(3-fluoro-4-isopropoxyphenylamino)-3-(methoxycarbonylmethyl)pyrimidine-2,4(1H,3H)-dion]	96 nM
COc1ccc(C(=O)Nc2cnc(Nc3ccc(OC(C)C)c(F)c3)n(Cc3ccc(Cl)cc3)c2=O)cn1 [I-274]	66 nM
CC(C)Oc1ccc(Nc2nc(=O)c(NC=O)cn2Cc2ccc(Cl)cc2)cc1F [I-239]	515 nM
CC(C)Oc1ccc(Nc2ncc(NC(=O)N3CCOCC3)c(=O)n2Cc2ccc(Cl)cc2)cc1F [I-278]	16 nM
Cc1ccc(Oc2ccc(Nc3ncc(NC(=O)C(CO)CO)c(=O)n3Cc3ccc(Cl)cc3)cc2)cn1 [I-298]	8 nM
COC(=O)C(C)(C)Cn1c(=O)cc(Nc2cccc(C(F)(F)F)n2)n(Cc2ccc(Cl)cc2)c1=O [I-108, 1-(4-chlorobenzyl)-3-(2-methoxycarbonyl-2-methylpropyl)-6-(6-trifluoromethyl-2-pyridylamino)pyrimidine-2,4(1H,3H)-dion]	61 nM

Tested on: not listed separately
Assay: Metabolism stability test (pooled human hepatic microsomes)
Format: in vitro ADME
Details: human liver microsomes 0.5 mg protein/mL; 37° C., 30 minutes; 1 mmol/L NADPH; compound concentration 0.5 μmol/L
Experimental: Using commercially available pooled human hepatic microsomes, a test compound was reacted for a constant time, a remaining rate was calculated by comparing a reacted sample and an unreacted sample, thereby, a degree of metabolism in liver was assessed.
A reaction was performed (oxidative reaction) at 37° C. for 0 minute or 30 minutes in the presence of 1 mmol/L NADPH in 0.2 mL of a buffer (50 mmol/L tris-HCl pH 7.4, 150 mmol/L potassium chloride, 10 mmol/L magnesium chloride) containing 0.5 mg protein/mL of human liver microsomes. After the reaction, 50 μL of the reaction solution was added to 100 μL of a methanol/acetonitrile 1/1 (v/v), mixed and centrifuged at 3000 rpm for 15 minutes. The test compound in the supernatant was quantified by LC/MS/MS, and a remaining amount of the test compound after the reaction was calculated, letting a compound amount at 0 minute reaction time to be 100%.

SMILES	remaining rate
CC(C)Oc1ccc(Nc2ncc(NC(=O)NC3CCOCC3)c(=O)n2Cc2ccc(Cl)cc2)cc1F [I-289]	89%
CCOC(=O)c1cn(Cc2ccc(Cl)cc2)c(Nc2ccc(OC(C)C)c(F)c2)nc1=O [I-131, 1-(4-chlorobenzyl)-2-(3-fluoro-4-isopropoxyphenylamino)-5-(ethoxycarbonyl)pyrimidine-4(1H)-one]	92%
